From publication PMC6792352, “Limited Chemical Structural Diversity Found to Modulate Thyroid Hormone Receptor in the Tox21 Chemical Library” (Environmental Health Perspectives, 2019)
Counter-ions that a name gives are not always drawn.

Assay: in vitro
Conditions: rat, gh3-tre-luc cells

Row | SMILES | CC50 at 24 h (AC50 (uM) modified / 1000) [µM] | further results
1 | COC1CCC=CO1 (centres unmarked) [3,4-Dihydro-2-methoxy-2H-pyran] | > 90 | –
2 | C=CC(N)CCC(=O)O (centres unmarked) [Vigabatrin] | > 50 | –
3 | ICCc1ccccc1 [2-Iodoethylbenzene] | > 90 | –
4 | CC1C2CC(CC2C2CCCC(O)C2)C1(C)C (centres unmarked) [3-(5,5,6-Trimethylbicyclo[2.2.1]hept-2-yl)cyclohexanol] | 54.6 | –
5 | CC(=O)Oc1cccc(O)c1 [Resorcinol monoacetate] | > 50 | –
6 | Cc1[nH]c(=O)c(C#N)cc1-c1ccc2nccn2c1 [Olprinone hydrochloride] | > 50 | –
7 | CCN[C@@H](C)Cc1ccccc1 [(S)-(+)-N-Ethylamphetamine hydrochloride] | > 100 | –
8 | O=C(O)CCS [3-Mercaptopropanoic acid] | > 90 | –
9 | O=C(O)CCCCCCNC1c2ccccc2CCc2ccccc21 [Amineptine] | – | CC50 at 24 h (AC50 (uM) modified / 1000, Tox21_110001=Tox21_113313, viability, 1 nM T3 present, 24 h): > 50 µM
10 | CCOC(=O)COc1ccc2c(C)c(CCN(CC)CC)c(=O)oc2c1 [Chromonar hydrochloride] | > 50 | –
11 | CCCCC[Si](OCC)(OCC)OCC [Triethoxypentylsilane] | > 90 | –
12 | C[Si](C)(C)O[Si](O)(O)O [Trimethylsilyl silicate] | > 90 | –
13 | C/C=C/c1ccc(OC)cc1 [Anethole] | > 90 | –
14 | CCN1/C(=C/C=C/c2sc3ccccc3[n+]2CC)Sc2ccccc21 [3,3'-Diethylthiacarbocyanine iodide] | 1.67 | –
15 | CC(C)=CCC/C(C)=C/CC/C(C)=C/CO [Farnesol] | 68.1 | –
16 | CC1(C)[C@H](C(=O)O)N2C(=O)C[C@H]2S1(=O)=O [Sulbactam] | > 50 | –
17 | COc1cc(C(=O)OCCCN2CCCN(CCCOC(=O)c3cc(OC)c(OC)c(OC)c3)CC2)cc(OC)c1OC [Dilazep] | 7.82 | –
18 | COC(=O)[C@@H]1[C@H]2C[C@H]3c4[nH]c5ccccc5c4CCN3C[C@@H]2CC[C@@H]1O [Yohimbine] | > 50 | –

Row | SMILES | CC50 at 24 h (AC50 (uM) modified / 1000) [µM] | further results
19 | C1=Cc2cccc3cccc1c23 [Acenaphthylene] | > 90 | –
20 | CC(C)CCC[C@@H](C)[C@H]1CC[C@H]2[C@@H]3CC[C@@H]4C[C@H](O)CC[C@]4(C)[C@H]3CC[C@]12C [(3alpha,5beta)-Cholestan-3-ol] | > 50 | –
21 | NCC(O)c1ccc(O)cc1 (centres unmarked) [Octopamine hydrochloride] | > 90 | –
22 | CC(C)C1OCCN1CCOC(=O)NCCCCCCNC(=O)OCCN1CCOC1C(C)C (centres unmarked) [Bis{2-[2-(propan-2-yl)-1,3-oxazolidin-3-yl]ethyl} hexane-1,6-diylbiscarbamate] | > 90 | –
23 | C/C(=C(\CCOP(=O)(O)O)SC(=O)c1ccccc1)N(C=O)Cc1cnc(C)nc1N [Benfotiamine] | > 20 | –
24 | NCc1ccccc1Sc1ccccc1CO [Bipenamol] | > 50 | –
25 | Cc1onc(-c2ccccc2)c1-c1ccc(S(N)(=O)=O)cc1 [Valdecoxib] | > 50 | –
26 | Nc1cccc2c(N)cccc12 [1,5-Naphthalenediamine] | > 90 | –
27 | Cc1ccc(C=O)s1 [5-Methyl-2-thiophenecarboxaldehyde] | > 90 | –
28 | CCCCCCC(=O)OCC [Ethyl heptanoate] | > 90 | –
29 | CCOC(=O)N(C)C(=O)CSP(=S)(OCC)OCC [Mecarbam] | – | CC50 at 24 h (AC50 (uM) modified / 1000, Tox21_110001=Tox21_302005, viability, 1 nM T3 present, 24 h): > 90 µM
30 | CCN1CCN(C(=O)N[C@@H](C(=O)N[C@@H]2C(=O)N3C(C(=O)O)=C(CSc4nnnn4C)CS[C@H]23)c2ccc(O)cc2)C(=O)C1=O [Cefoperazone sodium] | > 50 | –
31 | CCOC(=O)Cc1cccc2ccccc12 [Ethyl 1-naphthaleneacetate] | > 90 | –
32 | Clc1ccc([C@@H]2C[C@H]3CC[C@@H]2N3)cn1 [(+)-Epibatidine hydrochloride] | > 90 | –
33 | COc1ccc(CCN(C)CCCN2CCc3cc(OC)c(OC)cc3CC2=O)cc1OC [Zatebradine hydrochloride] | > 50 | –
34 | CCOC(=O)C1=NOC(c2ccccc2)(c2ccccc2)C1 [Isoxadifen-ethyl] | > 90 | –
35 | CS(=O)(=O)c1ccc([C@@H](O)[C@@H](COC(=O)CN)NC(=O)C(Cl)Cl)cc1 [Thiamphenicol glycinate hydrochloride] | > 50 | –
